Test results: the supplement of paper PMC5908809

What was measured:
[1] = tested on: normal NK cells expanded with K562-aAPC; assay: percent inhibition of viability; higher = more inhibition; conditions: 72 h, IL-2 2.5 ng/mL
Procedure: (§1)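 Drug sensitivity and resistance testing on K562-aAPC-expanded normal NK cells: 5 concentrations (10-fold steps over a 10,000-fold range), 72 h at 37 °C, viability by CellTiter-Glo normalised to DMSO and benzethonium chloride controls; DSS from the fitted curve.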

[2] = tested on: DERL-7 (IL-2 2.5 ng/mL); assay: as above; conditions: 72 h
[3] = tested on: YT (IL-2 2.5 ng/mL); assay: as above; conditions: 72 h
[4] = tested on: IMC-1 (IL-2 20 ng/mL); assay: as above; conditions: 72 h
[5] = tested on: NKL (IL-2 2.5 ng/mL); assay: as above; conditions: 72 h
[6] = tested on: KAI3 (IL-2 2.5 ng/mL); assay: as above; conditions: 72 h
[7] = tested on: normal primary NK cells, pool 1 (3 donors), resting (IL-2 0 ng/mL); assay: as above; conditions: 72 h
[8] = tested on: normal primary NK cells, pool 1 (3 donors) (IL-2 2.5 ng/mL); assay: as above; conditions: 72 h
[9] = tested on: normal primary NK cells, pool 3 (3 donors) (IL-2 2.5 ng/mL); assay: as above; conditions: 72 h
[10] = tested on: SNK-6 (IL-2 2.5 ng/mL); assay: as above; conditions: 72 h
[11] = tested on: KHYG-1 (IL-2 2.5 ng/mL); assay: as above; conditions: 72 h
[12] = tested on: NK-92 (IL-2 2.5 ng/mL); assay: as above; conditions: 72 h
[13] = tested on: NK-YS (IL-2 2.5 ng/mL); assay: as above; conditions: 72 h
[14] = tested on: normal primary NK cells, pool 2 (3 donors) (IL-2 2.5 ng/mL); assay: as above; conditions: 72 h
[15] = tested on: normal NK cells expanded with K562-aAPC; assay: drug sensitivity score (DSS) (DSS units); higher = more sensitive; extreme values may be limits of the assay; conditions: 72 h; IL-2 2.5 ng/mL
Procedure: as §1

[16] = tested on: DERL-7 (IL-2 2.5 ng/mL); assay: as above; conditions: 72 h
[17] = tested on: YT (IL-2 2.5 ng/mL); assay: as above; conditions: 72 h
[18] = tested on: IMC-1 (IL-2 20 ng/mL); assay: as above; conditions: 72 h
[19] = tested on: NKL (IL-2 2.5 ng/mL); assay: as above; conditions: 72 h
[20] = tested on: KAI3 (IL-2 2.5 ng/mL); assay: as above; conditions: 72 h
[21] = tested on: normal primary NK cells, pool 1 (3 donors), resting (IL-2 0 ng/mL); assay: as above; conditions: 72 h
[22] = tested on: normal primary NK cells, pool 1 (3 donors) (IL-2 2.5 ng/mL); assay: as above; conditions: 72 h
[23] = tested on: normal primary NK cells, pool 3 (3 donors) (IL-2 2.5 ng/mL); assay: as above; conditions: 72 h
[24] = tested on: SNK-6 (IL-2 2.5 ng/mL); assay: as above; conditions: 72 h
[25] = tested on: KHYG-1 (IL-2 2.5 ng/mL); assay: as above; conditions: 72 h
[26] = tested on: NK-92 (IL-2 2.5 ng/mL); assay: as above; conditions: 72 h
[27] = tested on: NK-YS (IL-2 2.5 ng/mL); assay: as above; conditions: 72 h
[28] = tested on: normal primary NK cells, pool 2 (3 donors) (IL-2 2.5 ng/mL); assay: as above; conditions: 72 h

CN1CCN(c2cc(C(=O)Nc3ccc4c(c3)-c3c(c(C(N)=O)nn3-c3ccc(F)cc3)CC4)c(Cl)cn2)CC1 [PHA 408] (max concentration tested 10000 nM)
percent inhibition of viability [%]
Conditions | 1 nM | 10 nM | 100 nM | 1000 nM | 10000 nM
[1] | -8.15 | -10.8 | -1.64 | 16.7 | 101
[2] | -1.3 | 0.79 | 2.16 | 31.9 | 101
[3] | -7.69 | -3.99 | -2.06 | 15.8 | 104
[4] | -8.52 | -6.11 | -8.53 | 2.74 | 99.6
[5] | -18.1 | -8.26 | -5.06 | 22.7 | 103
[6] | -0.05 | 1.36 | 9.21 | 50.4 | 101
[7] | 18.8 | 21.2 | 14.8 | 12.5 | 100
[8] | -10.8 | -7.07 | 1.01 | 6.7 | 101
[9] | 1.98 | 1.33 | 13.2 | 4.36 | 101
[10] | -17.6 | -11.2 | 0.21 | 22.9 | 100
[11] | -10.4 | -8.63 | -10.2 | -0.31 | 104
[12] | -21 | -16.1 | -4.02 | 12.9 | 102
[13] | -12.4 | -7.83 | -4.48 | 7.91 | 103
[14] | 1.04 | -1.49 | 11.9 | 13 | 101

Conditions | drug sensitivity score
[15] | 8.3
[16] | 10.1
[17] | 8.22
[18] | 5.9
[19] | 9.11
[20] | 11.6
[21] | 7.64
[22] | 6.64
[23] | 6.27
[24] | 9.12
[25] | 5.88
[26] | 7.75
[27] | 6.95
[28] | 7.73

FC(F)(F)c1ccc(/C=C/c2nc(COc3ccc(CCCCn4ccnn4)cc3)co2)cc1 [Mubritinib] (max concentration tested 1000 nM)
percent inhibition of viability [%]
Conditions | 0.1 nM | 1 nM | 10 nM | 100 nM | 1000 nM
[1] | -6.01 | -7.06 | -7.66 | 9.52 | 14.1
[2] | 1.75 | 0.44 | 5.74 | 24.8 | 27
[3] | -2.71 | -3.53 | 24 | 44.2 | 39.6
[4] | -1.73 | -4.86 | 37.2 | 86.6 | 31.2
[5] | -16.4 | -8.04 | 7.63 | 38.2 | 57.6
[6] | 3.33 | -9.68 | -0.43 | 26.5 | 45.4
[7] | 10 | 1.44 | 28.5 | 61 | 64.8
[8] | -7.65 | 0.13 | 21.1 | 48.2 | 50.2
[9] | -9.77 | -2.9 | 15.1 | 21.5 | 34
[10] | -13.7 | -12.2 | 4.91 | 4.95 | 7.75
[11] | -2.15 | -7.85 | 17 | 42.5 | 66.5
[12] | -8.31 | -12.6 | 7.62 | 30.8 | 42.3
[13] | -3.84 | -4.99 | 8.6 | 64 | 81.2
[14] | -5.29 | -7.28 | 16.6 | 27.6 | 34.2

Conditions | drug sensitivity score
[15] | 0.75
[16] | 4.52
[17] | 11
[18] | 20.6
[19] | 8.04
[20] | 5.59
[21] | 14.7
[22] | 11.5
[23] | 4.94
[24] | 0
[25] | 9.82
[26] | 6.23
[27] | 13
[28] | 7.39
